Source: patent US10894793B2, “Bicyclic pyridine, pyrazine, and pyrimidine derivatives as PI3K beta inhibitors” (Janssen Pharmaceutica NV, priority 2016, dated 2021)
Read-outs that look alike come from different tables or passages of the source.

Legend:
PIK3Cβ_h = target: T1, PIK3Cβ_h (Homo sapiens, UniProt P42338); assay: Enzyme binding assay (KINOMEscan); details: DiscoveRx
T1 construct: purchased DiscoveRx Corporation
Procedure: (§1) Enzyme Binding Assays (KINOMEscan®)
(§2) Kinase enzyme binding affinities of compounds disclosed herein were determined using the KINOMEscan technology performed by DiscoveRx Corporation, San Diego, Calif., USA (www.kinomescan.com). Table A reports the obtained Kd values (nM), with the Kd being the inhibitor binding constant: […]

PIK3Cδ_h = target: T2, PIK3Cδ_h (Homo sapiens, UniProt O00329); assay: Enzyme binding assay (KINOMEscan); details: DiscoveRx
T2 construct: purchased DiscoveRx Corporation
T2 sequence (O00329 1-1044): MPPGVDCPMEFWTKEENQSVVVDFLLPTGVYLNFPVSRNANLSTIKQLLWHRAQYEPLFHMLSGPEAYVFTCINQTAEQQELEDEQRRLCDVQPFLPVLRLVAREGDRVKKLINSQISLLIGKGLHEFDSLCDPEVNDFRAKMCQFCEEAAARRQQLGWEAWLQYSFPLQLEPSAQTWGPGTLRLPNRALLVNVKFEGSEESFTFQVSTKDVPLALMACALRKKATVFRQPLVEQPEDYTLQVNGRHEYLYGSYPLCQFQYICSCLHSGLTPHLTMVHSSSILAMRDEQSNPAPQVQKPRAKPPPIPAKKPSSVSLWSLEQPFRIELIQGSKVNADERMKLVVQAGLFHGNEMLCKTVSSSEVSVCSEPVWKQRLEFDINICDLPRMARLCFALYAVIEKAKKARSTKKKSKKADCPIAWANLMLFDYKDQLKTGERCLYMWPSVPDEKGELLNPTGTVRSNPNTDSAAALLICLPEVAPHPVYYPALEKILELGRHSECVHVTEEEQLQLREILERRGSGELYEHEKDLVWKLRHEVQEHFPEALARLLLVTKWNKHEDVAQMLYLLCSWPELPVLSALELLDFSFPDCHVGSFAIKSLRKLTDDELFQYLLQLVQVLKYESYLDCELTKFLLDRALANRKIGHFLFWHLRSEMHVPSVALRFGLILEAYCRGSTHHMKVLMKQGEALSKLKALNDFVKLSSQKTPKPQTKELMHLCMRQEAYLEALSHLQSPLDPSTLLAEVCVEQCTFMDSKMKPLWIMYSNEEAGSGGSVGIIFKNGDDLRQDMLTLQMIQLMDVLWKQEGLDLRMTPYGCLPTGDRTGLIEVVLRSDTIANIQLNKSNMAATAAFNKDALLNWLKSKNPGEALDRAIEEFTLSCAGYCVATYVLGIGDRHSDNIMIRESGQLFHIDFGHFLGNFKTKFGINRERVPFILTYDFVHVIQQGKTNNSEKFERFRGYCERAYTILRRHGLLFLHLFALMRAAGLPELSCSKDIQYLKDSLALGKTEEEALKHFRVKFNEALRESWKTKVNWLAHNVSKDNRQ
Procedure: as §1, §2

MTOR_h = target: T3, MTOR_h (Homo sapiens, UniProt P42345); assay: Enzyme binding assay (KINOMEscan); details: DiscoveRx
T3 construct: purchased DiscoveRx Corporation
Procedure: as §1, §2

PIK3Cγ_h = target: T4, PIK3Cγ_h (Homo sapiens, UniProt P48736); assay: Enzyme binding assay (KINOMEscan); details: DiscoveRx
T4 construct: purchased DiscoveRx Corporation
T4 sequence (P48736 whole entry): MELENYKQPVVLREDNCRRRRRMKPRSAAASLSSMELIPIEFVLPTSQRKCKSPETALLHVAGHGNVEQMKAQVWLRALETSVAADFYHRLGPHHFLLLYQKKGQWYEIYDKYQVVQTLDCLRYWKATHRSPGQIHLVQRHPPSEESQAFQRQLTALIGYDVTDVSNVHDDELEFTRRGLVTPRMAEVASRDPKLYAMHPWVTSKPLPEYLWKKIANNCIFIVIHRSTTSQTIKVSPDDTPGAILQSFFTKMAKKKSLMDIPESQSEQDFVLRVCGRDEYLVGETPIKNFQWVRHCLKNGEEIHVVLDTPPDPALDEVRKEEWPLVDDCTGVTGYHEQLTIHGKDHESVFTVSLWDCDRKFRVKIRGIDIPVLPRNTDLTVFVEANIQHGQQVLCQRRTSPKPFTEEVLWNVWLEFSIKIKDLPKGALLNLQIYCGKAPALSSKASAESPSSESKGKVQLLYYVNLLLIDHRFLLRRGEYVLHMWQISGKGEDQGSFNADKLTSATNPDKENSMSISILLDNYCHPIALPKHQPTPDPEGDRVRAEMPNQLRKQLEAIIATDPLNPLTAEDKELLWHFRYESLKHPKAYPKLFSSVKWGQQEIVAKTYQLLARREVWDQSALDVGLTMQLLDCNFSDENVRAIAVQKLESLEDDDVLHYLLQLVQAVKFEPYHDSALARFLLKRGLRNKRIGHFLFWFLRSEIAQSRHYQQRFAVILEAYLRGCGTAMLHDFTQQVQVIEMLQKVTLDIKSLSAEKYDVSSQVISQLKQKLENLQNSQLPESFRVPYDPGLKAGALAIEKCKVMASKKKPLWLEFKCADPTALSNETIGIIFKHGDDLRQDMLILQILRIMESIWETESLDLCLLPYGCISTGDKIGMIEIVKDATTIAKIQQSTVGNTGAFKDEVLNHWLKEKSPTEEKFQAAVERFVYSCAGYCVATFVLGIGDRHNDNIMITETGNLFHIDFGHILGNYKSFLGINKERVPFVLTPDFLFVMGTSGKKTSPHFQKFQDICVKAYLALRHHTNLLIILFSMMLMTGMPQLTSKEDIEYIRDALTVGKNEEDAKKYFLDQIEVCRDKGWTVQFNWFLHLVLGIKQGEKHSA
Procedure: as §1, §2

PIK3Cα_h = target: T5, PIK3Cα_h (Homo sapiens, UniProt P42336); assay: Enzyme binding assay (KINOMEscan); details: DiscoveRx
T5 construct: purchased DiscoveRx Corporation
T5 sequence (P42336 whole entry): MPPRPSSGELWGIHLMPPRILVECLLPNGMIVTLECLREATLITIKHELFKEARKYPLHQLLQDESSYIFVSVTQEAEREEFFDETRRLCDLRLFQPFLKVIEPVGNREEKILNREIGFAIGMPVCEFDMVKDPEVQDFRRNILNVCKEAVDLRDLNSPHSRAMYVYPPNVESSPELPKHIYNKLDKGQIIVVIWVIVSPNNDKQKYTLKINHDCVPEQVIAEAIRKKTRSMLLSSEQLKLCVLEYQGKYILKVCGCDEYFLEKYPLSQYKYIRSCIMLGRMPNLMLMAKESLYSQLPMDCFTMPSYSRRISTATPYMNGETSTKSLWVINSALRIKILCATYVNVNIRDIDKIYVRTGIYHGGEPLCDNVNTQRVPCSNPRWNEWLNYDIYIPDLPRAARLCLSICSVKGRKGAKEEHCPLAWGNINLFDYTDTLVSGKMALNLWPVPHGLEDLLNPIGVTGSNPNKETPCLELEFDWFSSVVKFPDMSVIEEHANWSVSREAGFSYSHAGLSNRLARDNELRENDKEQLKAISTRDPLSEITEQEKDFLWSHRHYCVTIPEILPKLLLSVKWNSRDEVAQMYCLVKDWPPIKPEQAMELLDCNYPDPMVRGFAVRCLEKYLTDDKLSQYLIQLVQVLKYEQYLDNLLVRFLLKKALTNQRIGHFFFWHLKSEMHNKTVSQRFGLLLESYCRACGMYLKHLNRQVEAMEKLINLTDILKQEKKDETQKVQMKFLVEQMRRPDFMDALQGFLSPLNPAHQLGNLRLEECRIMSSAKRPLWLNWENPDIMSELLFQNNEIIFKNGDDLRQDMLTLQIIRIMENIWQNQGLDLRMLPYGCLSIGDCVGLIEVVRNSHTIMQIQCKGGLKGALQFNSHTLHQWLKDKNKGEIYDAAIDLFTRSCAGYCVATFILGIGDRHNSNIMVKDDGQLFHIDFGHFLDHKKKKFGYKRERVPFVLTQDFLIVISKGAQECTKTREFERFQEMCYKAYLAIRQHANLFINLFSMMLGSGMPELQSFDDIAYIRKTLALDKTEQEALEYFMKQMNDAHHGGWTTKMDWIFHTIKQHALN
Procedure: as §1, §2

[1] = system: Akt phosphorylated at Ser473 in PC-3 cells; assay: Cellular assay: phosphorylation of Akt (Ser473) in PC-3 cells, MSD ELISA; format: cell-based; details: 60 min compound incubation, read-out: IC50 pAkt_S473
Procedure: (§3) Cellular activity of PI3Kβ inhibitors was determined by quantifying the phosphorylation of Akt in PC-3 cells. Akt phosphorylated at Ser473 and Thr308 were measured using an enzyme-linked immunosorbent assay (ELISA; Meso Scale Discovery (MSD), Gaithersburg, Md.) and specific primary antibodies from MSD.
(§4) On day 1, PC3 cells (ATCC #[…]) were seeded into PerkinElmer MW96 plates at 25.000 cells per well, in 75 μl complete culture medium (DMEM high glucose, AQmedia™, D0819, Sigma-Aldrich) containing 10% heat inactivated FCS and incubated at 37° C., […] during 24 hours. On day 2, compound or DMSO (0.3%) was added and cells were further incubated for 60 min at 37° C., 5% CO2 in a total volume of 100 μl of medium.
(§5) The phosphoprotein assay was executed according to vendor instructions in the Phospho-Akt (Ser473) Assay Whole Cell Lysate Kit (MSD #K15100D-3) and the Phospho-Akt (Thr308) Assay Whole Cell Lysate Kit (MSD #K151DYD-3) using the lysis, blocking and wash buffer provided.
(§6) Briefly, at the end of the cell treatment period, media were removed by aspiration and adherent cells were lysed in 50 μl ice-cold lysis buffer. MSD plates are supplied pre-coated with capture antibodies for Phospho-Akt (Ser473 and Thr308). After blocking, lysates from tissue culture plates were added and plates were washed. Then, a solution containing the detection antibody (anti-total Akt conjugated with an electrochemiluminescent compound-MSD Sulfo-tag label) was added. The signals were detected using an MSD SECTOR Imager 6000 and are proportional to the phospho-Akt titres.
(§7) Data were processed. The percentage of inhibition was plotted against the log concentration of test compounds, and the sigmoidal log concentration-effect curve of best fit was calculated by nonlinear regression analysis. From these concentration-response curves, the IC50 values were calculated. Five concentrations were used for curve fitting.

[2] = system: Akt phosphorylated at Thr308 in PC-3 cells; assay: Cellular assay: phosphorylation of Akt (Thr308) in PC-3 cells, MSD ELISA; format: cell-based; details: 60 min compound incubation, read-out: IC50 pAkt_Thr308
Procedure: as §3, §4, §5, §6, §7

T1 sequence (P42338 whole entry): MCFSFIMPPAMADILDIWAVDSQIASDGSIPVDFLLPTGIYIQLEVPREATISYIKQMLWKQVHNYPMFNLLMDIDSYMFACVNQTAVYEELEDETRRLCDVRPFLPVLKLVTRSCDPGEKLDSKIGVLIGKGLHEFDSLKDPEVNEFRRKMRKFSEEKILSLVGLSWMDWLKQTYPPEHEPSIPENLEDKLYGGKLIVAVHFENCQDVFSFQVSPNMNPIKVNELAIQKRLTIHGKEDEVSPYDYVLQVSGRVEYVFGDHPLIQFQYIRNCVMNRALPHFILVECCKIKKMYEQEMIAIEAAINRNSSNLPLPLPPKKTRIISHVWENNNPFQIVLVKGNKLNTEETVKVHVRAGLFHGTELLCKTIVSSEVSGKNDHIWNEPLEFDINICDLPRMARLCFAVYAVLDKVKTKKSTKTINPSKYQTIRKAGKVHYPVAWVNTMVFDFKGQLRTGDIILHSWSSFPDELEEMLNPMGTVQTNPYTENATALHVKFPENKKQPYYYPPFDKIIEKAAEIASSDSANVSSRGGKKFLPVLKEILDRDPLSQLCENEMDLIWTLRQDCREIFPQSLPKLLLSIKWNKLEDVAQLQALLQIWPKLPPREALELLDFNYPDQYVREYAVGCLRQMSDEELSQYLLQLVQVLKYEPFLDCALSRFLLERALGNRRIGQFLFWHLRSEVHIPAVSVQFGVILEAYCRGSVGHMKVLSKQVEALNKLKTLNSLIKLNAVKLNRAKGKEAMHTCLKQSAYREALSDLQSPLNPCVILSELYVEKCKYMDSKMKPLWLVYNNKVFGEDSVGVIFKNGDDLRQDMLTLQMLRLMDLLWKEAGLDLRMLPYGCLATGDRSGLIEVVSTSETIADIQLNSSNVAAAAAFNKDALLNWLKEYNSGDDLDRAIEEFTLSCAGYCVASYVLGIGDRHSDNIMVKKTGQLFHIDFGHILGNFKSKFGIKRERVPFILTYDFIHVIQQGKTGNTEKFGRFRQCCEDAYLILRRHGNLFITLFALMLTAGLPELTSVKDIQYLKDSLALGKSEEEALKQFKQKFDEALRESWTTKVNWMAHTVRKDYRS

| Structure (SMILES) | Kd (PIK3Cβ_h) | Kd (PIK3Cδ_h) | Kd (MTOR_h) | Kd (PIK3Cγ_h) | Kd (PIK3Cα_h) | IC50 ([1]; Homo sapiens, PC-3, 1 h) | IC50 ([2]; Homo sapiens, PC-3, 1 h) | IC50 [1] | IC50 [2] |
| --- | --- | --- | --- | --- | --- | --- | --- | --- | --- |
| Cc1c(Cc2c(CO)nc3ncc(N4CCOCC4)cn23)cccc1C(F)(F)F [Compound 18] | 1.4 nM | 442 nM | 17900 nM | 15300 nM | 3500 nM | 72 nM | 43 nM | – | – |
| Cc1c(Cc2c(CF)nc3ccc(N4CCOCC4)cn23)cccc1C(F)(F)F [Compound 29] | 126 nM | 2140 nM | > 30200 nM | 14500 nM | 6920 nM | 155 nM | 50 nM | – | – |
| Cc1c(Cc2c(CN(C)CCO)nc3ccc(N4CCOCC4)cn23)cccc1C(F)(F)F [Compound 36] | 22 nM | 2140 nM | > 30200 nM | > 30200 nM | > 30200 nM | ~224 nM | ~132 nM | – | – |
| Cc1c(Cl)cccc1Nc1c(CO)nc2ccc(N3CCOCC3)cn12 [Compound 39] | 0.5 nM | 141 nM | 3980 nM | 11200 nM | 468 nM | ~40 nM | 28 nM | – | – |
| CC(=O)N(CCO)Cc1nc2ccc(N3CCOCC3)cn2c1Cc1cccc(C(F)(F)F)c1C [Compound 37] | 20 nM | 1440 nM | 24000 nM | > 30200 nM | 10200 nM | 282 nM | ~282 nM | – | – |
| Cc1nc2c(CO)nc(C3=CCOCC3)cn2c1Cc1cccc(C(F)(F)F)c1C [Compound 4] | 7.6 nM | 3020 nM | > 30200 nM | 14800 nM | 12000 nM | > 513 nM | 479 nM | – | – |
| Cc1c(Cc2c(CC(=O)N3CC(CO)C3)nc3cnc(N4CCOCC4)cn23)cccc1C(F)(F)F [Compound 15] | 141 nM | 11200 nM | > 30200 nM | > 30200 nM | > 30200 nM | – | – | – | – |
| Cc1c(F)cccc1Cc1c(CO)nc2ncc(N3CCOCC3)cn12 [Compound 25] | 8.9 nM | 759 nM | 5620 nM | 7240 nM | 5890 nM | 195 nM | 120 nM | – | – |
| Cc1c(Cc2c(CO)nc3c(N)cc(N4CCOCC4)cn23)cccc1C(F)(F)F [Compound 45] | 91 nM | 3470 nM | 18600 nM | 15800 nM | 14500 nM | 145 nM | 166 nM | – | – |
| Cc1c(Cc2c(CO)nc3c(-c4c[nH]cn4)cc(C4=CCOCC4)cn23)cccc1C(F)(F)F [Compound 41] | 1.1 nM | 13 nM | 200 nM | 324 nM | 96 nM | 14 nM | 14 nM | – | – |
| Cc1c(Cc2c(CC(=O)N3C[C@@H](C)N[C@@H](C)C3)nc3cnc(N4CCOCC4)cn23)cccc1C(F)(F)F [Compound 14] | 155 nM | 15100 nM | > 30200 nM | > 30200 nM | > 30200 nM | > 513 nM | > 513 nM | – | – |
| Cc1c(Cc2c(CO)nc3c(-c4ccn[nH]4)cc(C4=CCOCC4)cn23)cccc1C(F)(F)F [Compound 42] | 2.5 nM | 186 nM | 151 nM | 1070 nM | 525 nM | 76 nM | ~20 nM | – | – |
| Cc1nc2c(C(=O)O)nc(C3=CCOCC3)cn2c1Cc1cccc(C(F)(F)F)c1C [Compound 3] | 1.4 nM | 468 nM | > 30200 nM | > 30200 nM | 11500 nM | – | > 513 nM | – | – |
| Cc1c(Cc2c(CN3CC4(C3)CS(=O)(=O)C4)nc3ccc(N4CCOCC4)cn23)cccc1C(F)(F)F [Compound 33] | 3 nM | 316 nM | > 30200 nM | > 30200 nM | 589 nM | 16 nM | 15 nM | – | – |
| Cc1c(Cc2c(CO)nc3c(-c4ccn[nH]4)cc(N4CCOCC4)cn23)cccc1C(F)(F)F [Compound 38] | 71 nM | 2040 nM | 2290 nM | 4370 nM | 2950 nM | > 513 nM | > 513 nM | – | – |
| Cc1c(Cc2c(CO)nc3c(-c4ncc[nH]4)cc(C4=CCOCC4)cn23)cccc1C(F)(F)F [Compound 43] | 0.9 nM | 35 nM | 1670 nM | 1920 nM | 585 nM | 52 nM | ~59 nM | – | – |
| Cc1c(Cc2c(CNCCO)nc3cnc(N4CCOCC4)cn23)cccc1C(F)(F)F [Compound 12] | 68 nM | 5490 nM | > 30200 nM | > 30200 nM | > 30200 nM | > 513 nM | > 513 nM | – | – |
| Cc1c(Cc2c(CN3CCC4(CCS(=O)(=O)C4)C3)nc3ncc(N4CCOCC4)cn23)cccc1C(F)(F)F (stereo not drawn) [Compound 24] | 11 nM | 1410 nM | > 30200 nM | > 30200 nM | 2570 nM | 288 nM | ~174 nM | – | – |
| Cc1c(Cc2c(CNCCO)nc3ccc(N4CCOCC4)cn23)cccc1C(F)(F)F [Compound 34] | 9 nM | 741 nM | 23200 nM | > 30200 nM | 16900 nM | 110 nM | 70 nM | – | – |
| Cc1c(Cc2c(CN3CCC4(CCS(=O)(=O)C4)C3)nc3ncc(N4CCOCC4)cn23)cccc1C(F)(F)F (single isomer, unassigned) [Compound 24a] | 6.5 nM | 759 nM | > 30200 nM | > 30200 nM | > 30200 nM | – | – | 347 nM | 170 nM |
| Cc1c(Cc2c(CN3CCCC4(CNC4)C3)nc3ccc(N4CCOCC4)cn23)cccc1C(F)(F)F [Compound 31] | 20 nM | 1350 nM | > 30200 nM | > 30200 nM | > 30200 nM | 479 nM | > 513 nM | – | – |
| Cc1c(Cc2c(CN3C[C@@H](C)N[C@@H](C)C3)nc3cnc(N4CCOCC4)cn23)cccc1C(F)(F)F [Compound 11] | 120 nM | 8130 nM | > 30200 nM | > 30200 nM | > 30200 nM | > 513 nM | > 513 nM | – | – |
| CCOC(=O)Cc1nc2ccc(N3CCOCC3)cn2c1Cc1cccc(C(F)(F)F)c1C [Compound 30] | 631 nM | 5750 nM | > 10000 nM | > 30200 nM | > 10000 nM | – | – | – | – |
